Where a SMILES comes first, the peptide text is derived from it. [ ]: non-standard residue; d: D form. The star is where a group is joined. dPhe(4-NHCONH2) = NC(=O)Nc1ccc(C[C@@H](N)C(=O)O)cc1; Dihydroorotyl(S) = O=C1C[C@@H](C(=O)*)NC(=O)N1; dPhe(4-Cl) = N[C@H](Cc1ccc(Cl)cc1)C(=O)O; Phe(4-NH2) = Nc1ccc(C[C@H](N)C(=O)O)cc1; d2Nal = N[C@H](Cc1ccc2ccccc2c1)C(=O)O; Lys(iPr) = CC(C)NCCCC[C@H](N)C(=O)O; d3Pal = N[C@H](Cc1cccnc1)C(=O)O

One data set relates to histamine release. To be noted: cited from earlier work.
Data set [1] can be described thus: Thio T binding (amyloid fibril formation). It is filed as physicochemical. The arrangement: key to Thio T Binding: b, binding; n, not binding. As to conditions: 1 mg/ml in 5% D-mannitol, 0.01% sodium azide, room temperature without stirring, monitored daily over 21 d; fluorescence ex 450 nm / em 482 nm; three independent experiments. On the procedure:
The kinetics of fibril formation in vitro is generally a slow process over several days or weeks, and can be monitored by the increase of fluorescence intensity of the cross-β-sheet–sensitive dye, Thio T [15]. Thio T fluorescence is thereby insignificant during the initial incubation period of amyloid aggregation due to the nonexistence of Thio T–sensitive β-sheet aggregates. After the initial phase, a time-dependent increase of fluorescence intensity is observed until a maximum intensity is reached, at which time maximal fibril formation has occurred. […] For the Thio T binding studies, all GnRH analogs were incubated at room temperature at a concentration of 1 mg/ml in 5% D-mannitol, conditions identical to the formulation used in the animal experiments. In addition, 0.01% sodium azide was added. The Thio T fluorescence was monitored daily for all analogs over a period of 21 d (Figure 1).
(§1) GnRH analogs were dissolved in a glass tube in 1 ml of 5% D-mannitol and 0.01% sodium azide at a concentration of 1 mg/ml. The GnRH analogs were then incubated at room temperature without stirring. The fibril formation was monitored by EM, CR, and time-resolved by Thio T binding studies. Three independent experiments were performed for each sample.
A 10-μl aliquot of peptide sample was diluted into 500 μl of water with 5% D-mannitol containing 0.01% (w/v) sodium azide. The solution was mixed with 10 μl of 1 mM Thio T prepared in the same solution. Fluorescence was measured immediately after addition of Thio T. The experiment was measured on a spectrofluorimeter (Photon Technology International) with excitation at 450 nm and emission at 482 nm. The fluorescence intensity at 482 nm was plotted against incubation time (day). A rectangular 10-mm quartz microcuvette was used. Three independent experiments were performed for each sample.

For data set [2], the system named is plasma luteinizing hormone (LH) levels. To be noted: duration of action class as listed in Table 1; castrated male rat assay; ref Tables S1 and S2; cited from earlier work. From the text:
Table 1 Biochemical and Biophysical Properties of Aggregates By GnRH-Analogs | column: Action || Supplement pbio.0060017.st001.doc, table 1: Table S1: Short acting GnRH analogs with their duration of action | column: Duration of action^b || Supplement pbio.0060017.st002.doc, table 1: Table S2: Long acting GnRH analogs with their duration of action | column: Duration of action^b || (+ 2 further places)

The nature of data set [3]: Electron microscopy of negative-stained samples. To be noted: for EM^8: electron microscopy at day 8 of incubation; for EM^8 / EM^30: 1 mg/ml in 5% D-mannitol, room temperature, at least two independent experiments; for EM^30: electron microscopy at day 30 of incubation. It is filed as physicochemical. The arrangement: key to EM^8 / EM^30: fib, fibrils; nfib, no fibrils. How it is done:
To formally determine the formation of amyloid fibrils by GnRH analogs and to characterize other possible assemblies present in the sample, EM was done on all of the GnRH analogs. Since the EM analysis is for a qualitative interpretation only, amyloid fibrils and other small aggregates might be observed under the electron microscope even if only a minority of the sample forms fibrils. Samples were studied after 8 and 30 d of incubation. […] The fibrils show a wide variety of morphologies, comprising helical ultrastructures with varying degrees of lateral association. Furthermore, the fibrils are composed of one or more filaments, resulting in overall diameters ranging from approximately 6 to 12 nm. No oligomers are observed for the long-acting compounds at day 8 or at day 30 (Figures 2 and S2).
as §1
A 5-μl aliquot of peptide sample was diluted into 50 μl of water to a peptide concentration of approximately 50 μM, spotted on a glow-discharged, carbon-coated Formvar grid (Electron Microscopy Sciences), incubated for 5 min, washed with distilled water, and then stained with 1% (w/v) aqueous uranyl formate solution. Uranyl formate solutions were filtered through 0.2-μm sterile syringe filters (Corning) before use. EM analysis was performed using a JEOL JEM-100CXII electron microscope at 80 kV with nominal magnifications between 36,000 and 72,000. Images were recorded digitally by using the SIS Megaview III imaging system. At least two independent experiments were carried out for each sample.

Data set [4] is described as follows: Peptide release from amyloid (dialysis experiment). To be noted: 3.5-kDa MWCO, room temperature, 35 d; for t1/2: half-life of fibrils: time in which fluorescence inside drops by 50%, dialysis of 30-d-old analog, 5% D-mannitol, exponential fit, 2 d = intrinsic diffusion of monomer. On the procedure:
Although amyloid fibrils are very stable, they must follow thermodynamic equilibrium conditions between fibril and monomer. […] A total of 200 μl of 30-d-old GnRH analog (in) was dialyzed 4 ml of 5% D-mannitol (out). A 3.5-kDa cutoff, which is twice the size of the peptides studied, was chosen to ensure that the released particles are most likely monomeric. The peptide release and the remaining aggregates were monitored by fluorescence over 35 d at room temperature.
A 200-μl aliquot of aged GnRH in solution conditions given above was transferred into a 0.6-ml Eppendorf tube with a hole in the cap. To study the effect of heparin on peptide release, a mixture of hormone analog and heparin (1:1 v/v) was incubated overnight in parallel with a half-diluted peptide fibril sample in 5% D-mannitol and 0.01% sodium azide. The hole in the cap of the Eppendorf tube was sealed with a 3.5-kDa molecular weight cutoff (MWCO) membrane. Next, the Eppendorf tube was inserted upside down into a 15-ml Falcon tube containing 4 ml of 5% D-mannitol in water and 0.01% sodium azide. Care was taken to make sure that the membrane was exposed to solutions both in and outside and that any bubbles at the membrane interface were removed. The tubes were then incubated at room temperature. To measure the remaining peptide concentration inside the 0.6-ml Eppendorf tube, a 5-μl aliquot was diluted into 500 μl water with 5% D-mannitol, 0.01% sodium azide, and the fluorescence was measured with excitation at 280 nm and emission in the range of 290–500 nm. The excitation slit width was 2 nm, and emission slit width was 11 nm. To determine the peptide concentration outside the membrane in the 15-ml tube, an aliquot of 250 μl of solution was taken from the releasing medium, diluted into 500 μl final volume by 5% D-mannitol, 0.01% sodium azide, and fluorescence was measured. Following spectra recording, the dialysis system was reassembled as described above. […] The normalized intensity maxima from inside and outside the membrane were plotted as a function of time and fit by an exponential function to extract the half-life of the fibrils and the K off, respectively. […] The extracted half-life, t 1/2, is the time taken, during which the fluorescence signal inside the 0.6-ml Eppendorf tube drops by 50%.

The nature of a further data set: Congo red (CR) binding. To be noted: analogs incubated for 30 d, 1 mg/ml in 5% D-mannitol, 0.01% sodium azide, room temperature; UV 300–700 nm and by eye; three independent experiments. It is filed as physicochemical. On the set-up: key to Congo Red: b, binding; n, not binding. How it is done:
To confirm amyloid formation by GnRH analogs, CR binding was measured. CR, like Thio T, is a dye routinely used to detect β-sheet–rich assemblies. CR binding can be measured by the “red shift” change of its absorption maximum from 490 to 540 nm, by an increase of the dye's molar absorptivity, and in favorable cases by eye. All three types of measurements were performed with GnRH analogs incubated for 30 d. […] However, five short-acting GnRH analogs, i.e., S3, S4, S6, S10, and S11, bind CR, showing that some short-acting GnRH-analogs are able to form amyloids after prolonged incubation (see also below). In contrast to short-acting analogs, all long-acting analogs bind CR.
as §1
A 5-μl aliquot of peptide sample was mixed with 80 μl of PBS buffer containing 10% ethanol. Then 15 μl of a 100 μM CR solution (filtered through 0.2-μm filter) in PBS containing 10% ethanol was added. After mixing, UV was measured from 300–700 nm. For the measurement of the CR-only spectrum, 15 μl of CR solution with 85 μl of PBS containing 10% ethanol was prepared. As a control, a 5-μl aliquot of GnRH analog mixed with 95 μl of PBS containing 10% ethanol was measured. Three independent experiments were performed for each sample. In addition to the UV measurements, pictures of the cuvette containing the peptide sample and CR were taken to visually show the CR binding to the amyloids.

For data set [5], the system named is mouse embryo fibroblast cells. As to the kind of experiment: LDH release assay. It is filed as cell-based. To be noted: 1 μM Aβ(1–40); triplicate. The text has this:
Since amyloid fibrils can be toxic to cells and are associated with several neurological diseases, it is a concern whether or not amyloid fibrils of GnRH analogs are able to generate a toxic response as well. To measure the potential toxicity of GnRH analogs, we used the lactate dehydrogenase (LDH) release assay for cell killing. The LDH release assay is a widely used assay to determine the cytotoxicity of chemicals or environmental toxic factors. LDH is a soluble cytosolic enzyme that is released into the culture medium following the loss of membrane integrity. For the LDH assay, we used mouse embryo fibroblast cells and aged peptide samples at 60 μM in 5% D-mannitol.
For the LDH assay, we used mouse embryo fibroblast cells and peptide fibrils at 60 μM final concentration in 5% D-mannitol. For the buffer control, we used 5% D-mannitol in water. We also used 1 μM Aβ(1–40) and a cell lysate to compare our data. The assay was done using a kit (Sigma) as described by the manufacturer. The assays were done in triplicate and the data presented as the standard error of the mean.
For orientation: LDH leaks from cells whose membrane has failed.

In the case of `CC(=O)N[C@H](Cc1ccc2ccccc2c1)C(=O)N[C@H](Cc1ccc(Cl)cc1)C(=O)N[C@H](Cc1cccnc1)C(=O)N[C@@H](CO)C(=O)N[C@@H](Cc1ccc(NC(=O)[C@@H]2CC(=O)NC(=O)N2)cc1)C(=O)N[C@H](Cc1ccc(NC(N)=O)cc1)C(=O)N[C@@H](CC(C)C)C(=O)N[C@@H](CCCCNC(C)C)C(=O)N1CCC[C@H]1C(=O)N[C@H](C)C(N)=O` [L13, Ac-DNal-DCpa-DPal-Ser-Aph(LHor)-DAph(Cbm)-Leu-ILys-Pro-DAla-NH2] (Ac-[d2Nal][dPhe(4-Cl)][d3Pal]S[Phe(4-NH2)](Dihydroorotyl(S))[dPhe(4-NHCONH2)]L[Lys(iPr)]P[dA]-NH2), the “safety margin with regard to histamine release” value with histamine release was “good safety margin”.
Regarding “Ac-DNal-DCpa-DPal-Ser-Aph(Ac)-DAph(Ac)-Leu-Agl(Me,IβAla)-Pro-DAla-NH2 [L22]”, the “Thio T Binding” value in data set [1] was “b”. The Action entry in data set [2] was “medium”. Also, in data set [3], the “EM^8” value is “fib” and the “EM^30” value is “fib”. This compound had an equilibrium dissociation constant (KD) in data set [4] (dissociation constant of the aggregates = final monomer concentration, 200 μl of 30-d-old analog dialyzed against 4 ml 5% D-mannitol, fluorescence ex 280 nm) of 7 µM. Moreover, the t1/2 in data set [4] is 28 days. The “Congo Red” value in “Congo red (CR) binding” is recorded as “b”.
Take “Ac-DNal-DCpa-DPal-Ser-D,LAgl(Me,acetylamino)benzoyl-DAph(Ac)-Leu-ILys-Pro-DAla-NH2 [S9]”: the “Thio T Binding” value in data set [1] is listed as “n”. Further, the Action result in data set [2] is on record as “very short”. Besides, in data set [3] (30 d of incubation), the “EM, formation of amyloid-like fibrils at day 30 (in words)” value is “do not form any detectable amyloid-like fibrils”. In addition, in data set [3], the “EM^8” value is given as “nfib” and the “EM^30” value is given as “nfib”. The compound also gave a t1/2 in data set [4] of 2 days. In addition, the “Congo Red” value in “Congo red (CR) binding” is reported as “n”.
Consider “Aβ(1–40): amyloid peptide Aβ(1–40), used as positive control in the LDH release assay”, for which the “toxicity (LDH release)” value in data set [5] was “neither the peptide analog samples nor Aβ(1–40) generated toxicity”.

In general, KD refers to the constant that tells how readily two partners part at equilibrium.

The values are drawn from article PMC2225439, “Amyloid as a Depot for the Formulation of Long-Acting Drugs” (PLoS Biology, 2008).
